Results reported in patent US20260070945A1, “MACROCYCLIC IMMUNOMODULATORS” (Bristol-Myers Squibb Company, priority 2022, published 2026).
Where a SMILES comes first, the peptide text is derived from it. Bridges are numbered along the chain shown (N, C = ends). [ ]: non-standard residue; d: D form. The star is where a group is joined. ξ: configuration not given here. Phe(3-CF3) = N[C@@H](Cc1cccc(C(F)(F)F)c1)C(=O)O; Phe(4-CF3) = N[C@@H](Cc1ccc(C(F)(F)F)cc1)C(=O)O; Phe(4-COOH) = N[C@@H](Cc1ccc(C(=O)O)cc1)C(=O)O; Bip = N[C@@H](Cc1ccc(-c2ccccc2)cc1)C(=O)O; Phe(3-Me) = Cc1cccc(C[C@H](N)C(=O)O)c1; Abu(3S-NH2) = C[C@H](N)[C@H](N)C(=O)O; NH(CH2)12COOH = O=C(O)CCCCCCCCCCCCN*; Val(3-OH) = CC(C)(O)[C@H](N)C(=O)O; hArg = N=C(N)NCCCC[C@H](N)C(=O)O; 4Pal = N[C@@H](Cc1ccncc1)C(=O)O; Cha = N[C@@H](CC1CCCCC1)C(=O)O; Cit = NC(=O)NCCC[C@H](N)C(=O)O; Ile(3ξ) = CCC(C)[C@H](N)C(=O)O; Thr(3ξ) = CC(O)[C@H](N)C(=O)O; 12Ado = NCCCCCCCCCCCC(=O)O; Carboxymethyl = O=C(O)C*; NMeA = CN[C@@H](C)C(=O)O; Orn = NCCC[C@H](N)C(=O)O; dDap = NC[C@@H](N)C(=O)O; Aun = NCCCCCCCCCCC(=O)O; Dab = NCC[C@H](N)C(=O)O; Dap = NC[C@H](N)C(=O)O; AEEA = NCCOCCOCC(=O)O

These compounds were tested against T1, PD-1/PD-L1 interaction (PE-labeled human PD-L1-Ig binding to Jurkat cell line over-expressing human PD-1) (Homo sapiens, UniProt Q15116) (assay: Jurkat-PD-1 Cell Binding High-Content Screening Assay (CBA)). Details: Jurkat-hPD-1 cells, PE-labeled PD-L1-Ig 20 nM final; read-out: Jurkat HPD1 PDL1 IC50.
T1 construct: expressed in transfected cells; host or cells: Jurkat
T1 sequence (Q15116 25-288): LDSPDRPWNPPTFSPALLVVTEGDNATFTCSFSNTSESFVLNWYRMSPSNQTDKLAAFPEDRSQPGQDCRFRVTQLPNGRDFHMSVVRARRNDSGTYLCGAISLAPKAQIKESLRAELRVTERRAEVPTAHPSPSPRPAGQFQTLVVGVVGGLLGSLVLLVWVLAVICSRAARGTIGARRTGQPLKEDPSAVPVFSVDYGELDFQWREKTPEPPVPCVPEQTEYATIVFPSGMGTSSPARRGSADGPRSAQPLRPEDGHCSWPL
Procedure, shortened: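 In this imaging assay, cells in 10% FCS medium see compound for 2 h at 37 °C and then labeled ligand at 20 nM final for 1 h. Paraformaldehyde fixation, Hoechst 33342 staining and dPBS washes precede image capture.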
An IC50 of 12.3 nM was found for `CC(C)C[C@H]1NC(=O)[C@H](C)N(C)C(=O)[C@H](C(C)C)NC(=O)[C@H](Cc2ccc(-c3ccccc3)cc2)NC(=O)[C@H](C(C)C)NC(=O)[C@H](Cc2c[nH]c3ccccc23)NC(=O)[C@H](CC(=O)O)NC(=O)[C@H](Cc2ccc(OCC(=O)O)cc2)NC(=O)[C@H](CCCCNC(=N)N)NC(=O)CSC[C@@H](C(=O)N[C@@H](CCCCN)C(=O)NCCOCCOCC(=O)NCCCCCCCCCCC(=O)O)NC(=O)[C@H](CO)NC(=O)[C@H](C(C)C)NC(=O)[C@H](CC2CCCCC2)NC(=O)[C@H](CCN)NC1=O` [Example 2089] ({CH2CO}-[hArg]Y(Carboxymethyl)DWV[Bip]V[NMeA][dL][Dab][Cha]VSCK[AEEA][Aun]-OH; thioether N-14) in this work.
An IC50 of 7.9 nM was found for `CC(C)C[C@H]1NC(=O)[C@H](C)N(C)C(=O)[C@H](CCCNC(N)=O)NC(=O)[C@H](Cc2ccc(-c3ccccc3)cc2)NC(=O)[C@H](Cc2ccc(C(=O)O)cc2)NC(=O)[C@H](Cc2cccc(C(F)(F)F)c2)NC(=O)[C@H](CC(=O)O)NC(=O)[C@H](Cc2ccc(OCC(=O)O)cc2)NC(=O)[C@H]([C@H](C)N)NC(=O)CSC[C@@H](C(=O)N[C@@H](CCN)C(=O)NCCCCCCCCCCCCC(=O)O)NC(=O)[C@H](CCC(=O)O)NC(=O)[C@H](C(C)C)NC(=O)[C@H](CC2CCCCC2)NC(=O)[C@H](CCN)NC1=O` [Example 1194] ({CH2CO}-[Abu(3S-NH2)]Y(Carboxymethyl)D[Phe(3-CF3)][Phe(4-COOH)][Bip][Cit][NMeA][dL][Dab][Cha]VEC[Dab]-{NH(CH2)12COOH}; thioether N-14) in this work.
An IC50 of 29 nM was found for `CC(C)C[C@@H]1NC(=O)[C@H](Cc2c[nH]c3ccccc23)NC(=O)[C@H](CC(=O)O)NC(=O)[C@H](Cc2ccc(OCC(=O)O)cc2)NC(=O)[C@H](Cc2ccccc2)NC(=O)CSC[C@@H](C(=O)N[C@H](CN)C(=O)NCCOCCOCC(=O)NCCCCCCCCCCC(=O)O)NC(=O)[C@H](Cc2c[nH]cn2)NC(=O)[C@H](C(C)C)NC(=O)[C@H](CC(C)C)NC(=O)[C@H](CCN)NC(=O)[C@@H](CC(C)C)NC(=O)[C@H](C)N(C)C(=O)[C@H](C(C)C)NC(=O)[C@H](Cc2ccc(-c3ccccc3)cc2)NC1=O` [Example 2037] ({CH2CO}-FY(Carboxymethyl)DWL[Bip]V[NMeA][dL][Dab]LVHC[dDap][AEEA][Aun]-OH; thioether N-14) in this work.
An IC50 of 20.9 nM was found for `Cc1cccc(C[C@@H]2NC(=O)[C@H](CC(=O)O)NC(=O)[C@H](Cc3ccc(OCC(=O)O)cc3)NC(=O)[C@H](Cc3ccc(OCC(=O)O)cc3)NC(=O)CSC[C@@H](C(=O)N[C@@H](CCCCN)C(=O)NCCCCCCCCCCC(=O)O)NC(=O)[C@H](CN)NC(=O)[C@H](C(C)C)NC(=O)[C@H](CC3CCCCC3)NC(=O)[C@H](CCN)NC(=O)[C@@H](CC(C)C)NC(=O)[C@H](C)N(C)C(=O)[C@H](C(C)C)NC(=O)[C@H](Cc3ccc(-c4ccccc4)cc3)NC(=O)[C@H](C(C)C)NC2=O)c1` [Example 2376] ({CH2CO}-Y(Carboxymethyl)Y(Carboxymethyl)D[Phe(3-Me)]V[Bip]V[NMeA][dL][Dab][Cha]V[Dap]CK[Aun]-OH; thioether N-14) in this work.
An IC50 of 10.4 nM was found for `CC(C)C[C@@H]1NC(=O)[C@H](Cc2c[nH]c3ccccc23)NC(=O)[C@H](CC(=O)O)NC(=O)[C@H](Cc2ccc(C(=O)O)cc2)NC(=O)[C@H](Cc2ccc(OCC(=O)O)cc2)NC(=O)CSC[C@@H](C(=O)N[C@@H](CCN)C(=O)NCCOCCOCC(=O)NCCCCCCCCCCC(=O)O)NC(=O)[C@H](CCCNC(N)=O)NC(=O)[C@H](C(C)C)NC(=O)[C@H](CC2CCCCC2)NC(=O)[C@H](CCN)NC(=O)[C@@H](CC(C)C)NC(=O)[C@H](C)N(C)C(=O)[C@H](C(C)C)NC(=O)[C@H](Cc2ccc(-c3ccccc3)cc2)NC1=O` [Example 2127] ({CH2CO}-Y(Carboxymethyl)[Phe(4-COOH)]DWL[Bip]V[NMeA][dL][Dab][Cha]V[Cit]C[Dab][AEEA][Aun]-OH; thioether N-14) in this work.
An IC50 of 21.1 nM was found for `CCC(C)[C@@H]1NC(=O)[C@H](Cc2ccc(-c3ccccc3)cc2)NC(=O)[C@H](CC(C)C)NC(=O)[C@H](Cc2c[nH]c3ccccc23)NC(=O)[C@H](CC(=O)O)NC(=O)[C@H](Cc2ccc(OCC(=O)O)cc2)NC(=O)[C@H](Cc2ccncc2)NC(=O)CSC[C@@H](C(=O)N[C@H](CC(N)=O)C(=O)NCCOCCOCC(=O)NCCCCCCCCCCC(=O)O)NC(=O)[C@H](CO)NC(=O)[C@H](C(C)C)NC(=O)[C@H](CC(C)C)NC(=O)[C@H](CCN)NC(=O)[C@@H](CC(C)C)NC(=O)[C@H](C)N(C)C1=O` (stereo partly drawn) [Example 2064] ({CH2CO}-[4Pal]Y(Carboxymethyl)DWL[Bip][Ile(3ξ)][NMeA][dL][Dab]LVSC[dN][AEEA][Aun]-OH; thioether N-14) in this work.
An IC50 of 40.4 nM was found for `CC(C)C[C@@H]1NC(=O)[C@H](Cc2c[nH]c3ccccc23)NC(=O)[C@H](CC(=O)O)NC(=O)[C@H](Cc2ccc(OCC(=O)O)cc2)NC(=O)[C@H](Cc2ccc(OCC(=O)O)cc2)NC(=O)CSC[C@@H](C(=O)NCCOCCOCC(=O)NCCCCCCCCCCC(=O)O)NC(=O)[C@H](CO)NC(=O)[C@H](C(C)(C)O)NC(=O)[C@H](CC2CCCCC2)NC(=O)[C@H](CCN)NC(=O)[C@@H](CC(C)C)NC(=O)[C@H](C)N(C)C(=O)[C@H](C(C)C)NC(=O)[C@H](Cc2ccc(-c3ccccc3)cc2)NC1=O` [Example 2444] ({CH2CO}-Y(Carboxymethyl)Y(Carboxymethyl)DWL[Bip]V[NMeA][dL][Dab][Cha][Val(3-OH)]SC[AEEA][Aun]-OH; thioether N-14) in this work.
An IC50 of 17.5 nM was found for `CC(C)C[C@H]1NC(=O)[C@H](C)N(C)C(=O)[C@H](CCC(N)=O)NC(=O)[C@H](Cc2ccc(-c3ccccc3)cc2)NC(=O)[C@H](Cc2ccc(C(=O)O)cc2)NC(=O)[C@H](Cc2cccc(C(F)(F)F)c2)NC(=O)[C@H](CC(=O)O)NC(=O)[C@H](Cc2ccc(OCC(=O)O)cc2)NC(=O)[C@H]([C@H](C)N)NC(=O)CSC[C@@H](C(=O)N[C@@H](CCN)C(=O)NCCCCCCCCCCCCC(=O)O)NC(=O)[C@H](Cc2c[nH]cn2)NC(=O)[C@H](C(C)(C)O)NC(=O)[C@H](CC2CCCCC2)NC(=O)[C@H](CCN)NC1=O` [Example 1192] ({CH2CO}-[Abu(3S-NH2)]Y(Carboxymethyl)D[Phe(3-CF3)][Phe(4-COOH)][Bip]Q[NMeA][dL][Dab][Cha][Val(3-OH)]HC[Dab]-{NH(CH2)12COOH}; thioether N-14) in this work.
An IC50 of 12.8 nM was found for `CCC(C)[C@@H]1NC(=O)[C@H](Cc2ccc(-c3ccccc3)cc2)NC(=O)[C@H](CC(C)C)NC(=O)[C@H](Cc2cccc(C)c2)NC(=O)[C@H](CC(=O)O)NC(=O)[C@H](Cc2ccc(OCC(=O)O)cc2)NC(=O)[C@H](Cc2ccncc2)NC(=O)CSC[C@@H](C(=O)N[C@@H](CCCN)C(=O)NCCOCCOCC(=O)NCCCCCCCCCCC(=O)O)NC(=O)[C@H](C(C)O)NC(=O)[C@H](C(C)C)NC(=O)[C@H](CC2CCCCC2)NC(=O)[C@H](CCN)NC(=O)[C@@H](CC(C)C)NC(=O)[C@H](C)N(C)C1=O` (stereo partly drawn) [Example 2088] ({CH2CO}-[4Pal]Y(Carboxymethyl)D[Phe(3-Me)]L[Bip][Ile(3ξ)][NMeA][dL][Dab][Cha]V[Thr(3ξ)]C[Orn][AEEA][Aun]-OH; thioether N-14) in this work.

Same assay, conditions: PE-labeled PD-L1-Ig 20 nM final, Jurkat-hPD-1 cells; read-out: Jurkat HPD1 PDL1 IC50
An IC50 of 22.2 nM was found for `Cc1cccc(C[C@@H]2NC(=O)[C@H](CC(=O)O)NC(=O)[C@H](Cc3ccc(OCC(=O)O)cc3)NC(=O)[C@H](Cc3ccc(C(F)(F)F)cc3)NC(=O)CSC[C@@H](C(=O)N[C@@H](CCN)C(=O)NCCOCCOCC(=O)NCCCCCCCCCCC(=O)O)NC(=O)[C@H](CCC(=O)O)NC(=O)[C@H](C(C)C)NC(=O)[C@H](CC3CCCCC3)NC(=O)[C@H](CCN)NC(=O)[C@@H](CC(C)C)NC(=O)[C@H](C)N(C)C(=O)[C@H](Cc3ccc(C(=O)O)cc3)NC(=O)[C@H](Cc3ccc(-c4ccccc4)cc3)NC(=O)[C@H](Cc3ccc(C(=O)O)cc3)NC2=O)c1` [Example 2578] ({CH2CO}-[Phe(4-CF3)]Y(Carboxymethyl)D[Phe(3-Me)][Phe(4-COOH)][Bip][Phe(4-COOH)][NMeA][dL][Dab][Cha]VEC[Dab][AEEA][Aun]-OH; thioether N-14) in this work.
An IC50 of 2.3 nM was found for `Cc1cccc(C[C@@H]2NC(=O)[C@H](CC(=O)O)NC(=O)[C@H](Cc3ccc(OCC(=O)O)cc3)NC(=O)[C@H]([C@@H](C)O)NC(=O)CSC[C@@H](C(=O)N[C@@H](CCN)C(=O)NCCOCCOCC(=O)NCCCCCCCCCCCC(=O)O)NC(=O)CNC(=O)[C@H](C(C)C)NC(=O)[C@H](CC3CCCCC3)NC(=O)[C@H](CCN)NC(=O)[C@@H](CC(C)C)NC(=O)[C@H](C)N(C)C(=O)[C@H](Cc3ccc(OCC(=O)O)cc3)NC(=O)[C@H](Cc3ccc(-c4ccccc4)cc3)NC(=O)[C@H](Cc3ccc(OCC(=O)O)cc3)NC2=O)c1` [Example 2664] ({CH2CO}-TY(Carboxymethyl)D[Phe(3-Me)]Y(Carboxymethyl)[Bip]Y(Carboxymethyl)[NMeA][dL][Dab][Cha]VGC[Dab][AEEA][12Ado]-OH; thioether N-14) in this work.
An IC50 of 8.4 nM was found for `CC(C)C[C@H]1NC(=O)[C@H](C)N(C)C(=O)[C@H](C(C)C)NC(=O)[C@H](Cc2ccc(-c3ccccc3)cc2)NC(=O)[C@H](C(C)C)NC(=O)[C@H](Cc2c[nH]c3ccccc23)NC(=O)[C@H](CC(=O)O)NC(=O)[C@H](Cc2ccc(OCC(=O)O)cc2)NC(=O)[C@H](Cc2ccc(OCC(=O)O)cc2)NC(=O)CSC[C@@H](C(=O)NCCOCCOCC(=O)NCCCCCCCCCCC(=O)O)NC(=O)[C@H](CO)NC(=O)[C@H](C(C)(C)O)NC(=O)[C@H](CC2CCCCC2)NC(=O)[C@H](CCN)NC1=O` [Example 2455] ({CH2CO}-Y(Carboxymethyl)Y(Carboxymethyl)DWV[Bip]V[NMeA][dL][Dab][Cha][Val(3-OH)]SC[AEEA][Aun]-OH; thioether N-14) in this work.
